From ChEMBL document CHEMBL1150794, “Vibrio splendidus as the source of plasmid-mediated QnrS-like quinolone resistance determinants” (2007)
Values after ≈ are worked out from the molar mass of the structure shown.

How the values were obtained:
Format in all cases: functional
Vibrio splendidus [1] = assay: Antimicrobial activity against Vibrio splendidus 12B01 expressing plasmid-mediated QnrS-like quinolone resistance determinants
Vibrio splendidus [2] = assay: Antimicrobial activity against Vibrio splendidus LGP32 expressing plasmid-mediated QnrS-like quinolone resistance determinants
Escherichia coli [3] = assay: Antimicrobial activity against Escherichia coli TOP10
Escherichia coli [4] = assay: Antimicrobial activity against Escherichia coli TOP10 harbouring pVS1 expressing quinolone resistant Vibrio splendidus 12B01 QnrVS1 gene
Escherichia coli [5] = assay: Antimicrobial activity against Escherichia coli TOP10 harbouring pVS2 expressing quinolone resistant Vibrio splendidus LGP32 QnrVS2 gene
Escherichia coli [6] = assay: Antimicrobial activity against Escherichia coli TOP10 harbouring pS1 plasmid expressing quinolone resistant QnrS1 gene
Escherichia coli [7] = assay: Antimicrobial activity against Escherichia coli TOP10 harbouring pS2 plasmid expressing quinolone resistant QnrS2 gene
Escherichia coli [8] = assay: Antimicrobial activity against Escherichia coli TOP10 harbouring p0 plasmid expressing pCR-BluntII-TOPO

Compound	MIC (Vibrio splendidus [1]) [µg/mL]	MIC (Vibrio splendidus [2]) [µg/mL]	MIC (Escherichia coli [3]) [µg/mL]	MIC (Escherichia coli [4]) [µg/mL]	MIC (Escherichia coli [5]) [µg/mL]	MIC (Escherichia coli [6]) [µg/mL]	MIC (Escherichia coli [7]) [µg/mL]	MIC (Escherichia coli [8]) [µg/mL]
O=C(O)c1cn(C2CC2)c2cc(N3CCNCC3)c(F)cc2c1=O [CIPROFLOXACIN]	0.25 (≈ 0.754 µM)	0.25 (≈ 0.754 µM)	< 0.01	–	–	–	–	–
COc1c(N2C[C@@H]3CCCN[C@@H]3C2)c(F)cc2c(=O)c(C(=O)O)cn(C3CC3)c12 [MOXIFLOXACIN]	0.25 (≈ 0.623 µM)	0.25 (≈ 0.623 µM)	< 0.01	0.12 (≈ 0.299 µM)	0.12 (≈ 0.299 µM)	0.25 (≈ 0.623 µM)	0.25 (≈ 0.623 µM)	–
CCn1cc(C(=O)O)c(=O)c2ccc(C)nc21 [NALIDIXIC ACID]	2 (≈ 8.61 µM)	4 (≈ 17.2 µM)	1 (≈ 4.31 µM)	8 (≈ 34.4 µM)	8 (≈ 34.4 µM)	8 (≈ 34.4 µM)	8 (≈ 34.4 µM)	1 (≈ 4.31 µM)
CCn1cc(C(=O)O)c(=O)c2cc(F)c(N3CCNCC3)cc21 [NORFLOXACIN]	0.25 (≈ 0.783 µM)	0.5 (≈ 1.57 µM)	0.03 (≈ 0.0939 µM)	0.5 (≈ 1.57 µM)	0.5 (≈ 1.57 µM)	1 (≈ 3.13 µM)	1 (≈ 3.13 µM)	0.03 (≈ 0.0939 µM)
CC1COc2c(N3CCN(C)CC3)c(F)cc3c(=O)c(C(=O)O)cn1c23 (configuration not stated) [OFLOXACIN]	0.25 (≈ 0.692 µM)	0.5 (≈ 1.38 µM)	–	0.25 (≈ 0.692 µM)	0.25 (≈ 0.692 µM)	–	–	–
C[C@@H]1CN(c2c(F)c(N)c3c(=O)c(C(=O)O)cn(C4CC4)c3c2F)C[C@H](C)N1 [SPARFLOXACIN]	0.25 (≈ 0.637 µM)	0.5 (≈ 1.27 µM)	< 0.01	0.12 (≈ 0.306 µM)	0.12 (≈ 0.306 µM)	0.25 (≈ 0.637 µM)	0.25 (≈ 0.637 µM)	–
